Measured values: US20130296316A1, “Antiparasitic Agents Based On mTOR Inhibitors” (priority 2010, published 2013)
Where two headings read alike, the source gives them in different places. Blank lines part the entries; values can stand above or below the molecule they belong to.

Tests used:
L. major promastigotes [1] = test: Potency assessment against Leishmania major promastigotes (growth, cell counting); assay type: cell-based; conditions: for EC50 / IC50: Leishmania major; for EC50: promastigotes, average of three replicates, read-out: Effective concentration (EC50) L. major; for activity against L. major promastigotes in words: highest concentration tested; for IC50: Table 2B, read-out: L. major Promastigote IC50, growth inhibition
[2] = system: L. donovani axenic amastigotes; test: Potency assessment against Leishmania donovani axenic amastigotes (growth, cell counting); assay type: cell-based; conditions: for EC50 / IC50: Leishmania donovani; for EC50: axenic amastigotes, average of three replicates, read-out: Effective concentration (EC50) L. donovani axenic amastigotes; for activity against L. donovani axenic amastigotes in words: highest concentration tested; for IC50: Table 2B, read-out: L. donovani Axenic Amastigote IC50, growth inhibition
T. cruzi trypomastigotes = test: T. cruzi intracellular replication in NIH/3T3 host cells (β-galactosidase, CPRG); assay type: cell-based, Trypanosoma cruzi; conditions: Trypanosoma cruzi; for EC50: NIH3T3, 96 h, trypomastigotes with 3T3 host cells, four days, three replicates within ±10.2%, read-out: Effective concentration (EC50) T. cruzi; for IC50: NIH3T3, Table 2B, read-out: T. Cruzi IC50, growth inhibition
[3] = system: T. brucei brucei Lister 427; test: Potency assessment against T. brucei brucei Lister 427 bloodstream form (AlamarBlue, 72 h); assay type: cell-based, Trypanosoma brucei brucei; conditions: Trypanosoma brucei
human cells = conditions: literature, Table 1; read-out: Inhibition of Cell Growth EC50; cited from earlier work
mTOR = mTOR (Homo sapiens, UniProt P42345); conditions: cited from earlier work; for mTOR IC50 in words: mammalian cells / literature
PI3K p110α = PI3K p110α (Homo sapiens, UniProt P42336); conditions: human enzyme, Table 1; cited from earlier work
PI3K p110α, sequence (P42336 whole entry): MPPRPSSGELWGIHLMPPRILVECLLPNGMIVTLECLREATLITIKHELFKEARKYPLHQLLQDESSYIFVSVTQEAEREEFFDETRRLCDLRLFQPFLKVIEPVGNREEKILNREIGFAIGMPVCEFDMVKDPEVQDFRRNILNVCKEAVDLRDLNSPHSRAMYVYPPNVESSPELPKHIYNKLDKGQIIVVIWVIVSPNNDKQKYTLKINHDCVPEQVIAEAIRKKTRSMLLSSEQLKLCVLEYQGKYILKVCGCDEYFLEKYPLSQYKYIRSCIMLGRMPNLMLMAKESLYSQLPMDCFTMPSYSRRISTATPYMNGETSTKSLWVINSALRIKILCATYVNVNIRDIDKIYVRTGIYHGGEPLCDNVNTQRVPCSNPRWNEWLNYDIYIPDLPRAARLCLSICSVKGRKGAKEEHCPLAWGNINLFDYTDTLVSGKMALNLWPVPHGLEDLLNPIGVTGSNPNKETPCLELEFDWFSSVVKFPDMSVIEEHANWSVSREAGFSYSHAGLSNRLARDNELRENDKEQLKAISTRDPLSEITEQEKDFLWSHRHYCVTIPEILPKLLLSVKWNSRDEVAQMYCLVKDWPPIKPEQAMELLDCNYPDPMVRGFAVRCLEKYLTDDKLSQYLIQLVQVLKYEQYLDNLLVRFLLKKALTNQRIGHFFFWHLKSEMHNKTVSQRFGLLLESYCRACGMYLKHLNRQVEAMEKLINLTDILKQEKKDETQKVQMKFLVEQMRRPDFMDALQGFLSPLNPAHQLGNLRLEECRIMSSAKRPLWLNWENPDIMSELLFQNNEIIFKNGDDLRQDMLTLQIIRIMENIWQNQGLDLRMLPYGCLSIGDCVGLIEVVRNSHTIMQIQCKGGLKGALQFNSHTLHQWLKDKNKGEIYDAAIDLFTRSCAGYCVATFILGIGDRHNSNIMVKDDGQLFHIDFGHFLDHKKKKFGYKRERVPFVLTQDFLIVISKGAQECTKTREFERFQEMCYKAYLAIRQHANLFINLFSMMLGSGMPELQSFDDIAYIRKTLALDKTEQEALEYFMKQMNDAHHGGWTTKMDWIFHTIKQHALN
PI3K p110α, sequence (P27986 whole entry partner): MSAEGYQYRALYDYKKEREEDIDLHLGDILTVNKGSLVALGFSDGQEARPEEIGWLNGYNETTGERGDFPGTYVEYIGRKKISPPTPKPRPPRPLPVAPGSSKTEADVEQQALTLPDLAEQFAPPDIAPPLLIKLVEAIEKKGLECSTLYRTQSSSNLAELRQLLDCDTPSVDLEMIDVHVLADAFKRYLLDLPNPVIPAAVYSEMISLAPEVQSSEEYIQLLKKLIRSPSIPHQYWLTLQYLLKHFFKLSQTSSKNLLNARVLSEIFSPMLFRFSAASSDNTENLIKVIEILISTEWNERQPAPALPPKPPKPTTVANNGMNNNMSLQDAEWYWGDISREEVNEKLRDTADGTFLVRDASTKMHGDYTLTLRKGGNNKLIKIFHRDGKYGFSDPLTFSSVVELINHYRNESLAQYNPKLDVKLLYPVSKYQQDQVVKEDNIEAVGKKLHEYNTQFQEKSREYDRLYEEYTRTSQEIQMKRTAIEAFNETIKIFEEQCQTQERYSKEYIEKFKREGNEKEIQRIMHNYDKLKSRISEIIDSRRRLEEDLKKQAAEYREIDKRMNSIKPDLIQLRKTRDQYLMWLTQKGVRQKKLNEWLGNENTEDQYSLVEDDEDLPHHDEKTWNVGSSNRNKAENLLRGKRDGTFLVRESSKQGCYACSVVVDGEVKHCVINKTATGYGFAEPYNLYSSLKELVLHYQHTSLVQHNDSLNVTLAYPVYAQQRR

[4] = system: L. donovani promastigotes; test: Potency assessment against Leishmania donovani promastigotes (growth, cell counting); assay type: cell-based; conditions: Leishmania donovani; for IC50: Table 2B, read-out: L. donovani Promastigote IC50, growth inhibition; for EC50: promastigotes, average of three replicates, read-out: Effective concentration (EC50) L. donovani promastigotes
T. b. rhodesiense = test: Potency assessment against T. b. rhodesiense EATRO3 bloodstream form (AlamarBlue, 72 h); assay type: cell-based, Trypanosoma brucei rhodesiense; conditions: Trypanosoma brucei, RHODESIENSE; for IC50: Table 2B, read-out: T. brucei rhod IC50, growth inhibition
[5] = system: T. brucei brucei Lister 427 bloodstream cells; test: Morphological and cell cycle alterations in T. brucei (flow cytometry); assay type: cell-based, Trypanosoma brucei brucei; conditions: 16 h, WYE-354 2 μM; for effect on cellular DNA content / cell cycle, T. b. brucei: PI-103 1 μM, Pp242 2 μM, NVP-BEZ235 100 nM
Protocol: Flow cytometry was used to assess cell size and DNA content, to reveal a G1 arrest and inhibition of protein synthesis or G2 arrest and multinucleated cells. […]. After permeabilization with […], saponin (0.5 mg/mL final concentration), the culture was RNAse treated for 30 minutes (10 μg/mL final concentration) and stained with 20 μg/mL propidium iodide immediately before its acquisition in a FACscan cytometer. Cells incubated with equivalent concentration of drug solvent (DMSO) were included in each experiment as control population.

L. major promastigotes [6] = test: Cell size and DNA content analysis in Leishmania (flow cytometry); assay type: cell-based, Leishmania major
Protocol: L. major log phase promastigotes were inoculated at a concentration of 10^6 cells/ml into media with compounds as indicated, and incubated overnight with varying drug concentrations to assess cell size and DNA content. For cell size, forward scatter of live promastigotes was measured by a FACS flow cytometer (Becton Dickinson), utilizing dye exclusion with 5 μg/ml propidium iodide (PI) to gate for live cells. DNA content was determined by flow cytometry using fixed and permeabilized L. major stained with PI as previously described, but reducing the incubation time with PI and RNase A from 1 hour to 30 minutes. Histogram analysis was performed using CellQuest 3.1 software (BD Bioscience).

Leishmania = Leishmania growth inhibition summarised across both species and stages; assay type: cell-based; conditions: range over L. major and L. donovani, promastigotes and amastigotes
[7] = system: T. brucei gambiense, ELIANE strain; test: Potency assessment against T. b. gambiense ELIANE bloodstream form; assay type: cell-based, Trypanosoma brucei gambiense; conditions: Trypanosoma brucei, GAMBIENSE; Table 3; read-out: EC50 T. b. gambiense ELIANE
T. b. brucei Lister 927 = test: Potency assessment against T. b. brucei Lister 927; assay type: cell-based, Trypanosoma brucei brucei; conditions: Trypanosoma brucei; Table 3
Protocol: Assays were performed using the strain of T. brucei brucei Lister 427 adapted to the laboratory, and the human-infective strain T. b. rhodesiense (EATRO3 ETat1.2 TREU164 [37]). Both strains were grown and tested as bloodstream forms. To establish the EC50, cultures of Trypanosoma brucei and T. b. rhodesiense were treated with two-fold increasing concentrations of compounds (with similar DMSO increasing concentration as control). Cell populations were measured at 72 hours with an Infinite F200 microplate reader (Tecan Austria GmbH, Austria); the determination of cell viability was carried out by the established colorimetric technique AlamarBlue® with modifications, a 96-well plate format spectrophotometric assay which measures the ability of living cells to reduce resazurin [38,39]. Data obtained with T. b. brucei Lister 427 were confirmed by manual counting in a Neubauer chamber for a direct microscopic examination to rule out multinucleated phenotypes that could mask the colorimetric assays, as well as the subtraction of solvent background to dismiss a potential solvent-derived fluorescence. Pentamidine was used as drug control for potency comparison, and T. b. brucei Lister 927 strain was included in our experiments to evaluate the adaptation to medium for the different strains as a variable condition.

[8] = bloodstream form, average of three replicates, read-out: Effective concentration (EC50) T. b. brucei
[9] = bloodstream form, average of three replicates, read-out: Effective concentration (EC50) T. b. rhodesiense
[10] = overnight, PI-103 4 μM, WYE-354 25 μM, NVP-BEZ235 0.5 μM (EC60-EC90)

Compound: O=c1cc(N2CCOCC2)nc2c3ccccc3ccn12 [Compound 401, 2-(morpholin-1-yl)pyrimido[2,1-alpha]isoquinolin-4-one]
EC50 (L. major promastigotes [1]): > 25 µM | activity against L. major promastigotes in words (L. major promastigotes [1]): inactive | EC50 [2]: > 5 µM | activity against L. donovani axenic amastigotes in words [2]: inactive | EC50 (T. cruzi trypomastigotes): > 10 µM | EC50 [3, 8]: > 10 µM | EC50 (human cells): 1 µM | mTOR IC50 in words (mTOR): low micromolar concentrations | IC50 (PI3K p110α): > 100 µM

Compound: COc1ccc(-c2ccc3c(N4CCOCC4)nc(N4C[C@@H](C)O[C@@H](C)C4)nc3n2)cc1CO [Ku-0063794]
EC50 (L. major promastigotes [1]): > 25 µM | activity against L. major promastigotes in words (L. major promastigotes [1]): inactive | EC50 [2]: > 5 µM | activity against L. donovani axenic amastigotes in words [2]: inactive | EC50 (T. cruzi trypomastigotes): > 10 µM | EC50 [3, 8]: 0.89 ± 0.14 µM | EC50 (human cells): 0.03 µM

Compound: O=c1cc(N2CCOCC2)oc2c(-c3ccccc3)cccc12 [LY294002, 2-(4-morpholinyl)-8-phenyl-4H-1-benzopyran-4-one]
EC50 (L. major promastigotes [1]): > 25 µM | activity against L. major promastigotes in words (L. major promastigotes [1]): inactive | EC50 [2]: > 5 µM | activity against L. donovani axenic amastigotes in words [2]: inactive | EC50 (T. cruzi trypomastigotes): > 50 µM | EC50 [3, 8]: > 2 µM

Compound: O=c1cc(N2CCNCC2)oc2c(-c3ccccc3)cccc12 [LY303511, 2-piperazinyl-8-phenyl-4H-1-benzopyran-4-one]
EC50 (L. major promastigotes [1]): > 25 µM | activity against L. major promastigotes in words (L. major promastigotes [1]): inactive | EC50 [2]: > 5 µM | activity against L. donovani axenic amastigotes in words [2]: inactive | EC50 (T. cruzi trypomastigotes): > 10 µM | EC50 [3, 8]: > 2 µM

IC50 (L. major promastigotes [1]): 2.78 µM | IC50 [4]: 8.01 µM | IC50 [2]: 3.02 µM
Compound: Oc1ccccc1-c1nc(N2CCOCC2)c2cnn(C3CCN(Cc4ccccc4)CC3)c2n1 [NEU-00000231]
IC50 (T. b. rhodesiense): 2.23 µM

IC50 (L. major promastigotes [1]): 6.54 µM | IC50 [4]: 8.06 µM | IC50 [2]: 2.43 µM
Compound: c1ccc(CN2CCC(n3ncc4c(N5CCOCC5)nc(-c5ccncc5)nc43)CC2)cc1 [NEU-00000232]
IC50 (T. b. rhodesiense): 3.05 µM

IC50 (L. major promastigotes [1]): < 25 µM | IC50 [4]: ~25 µM
Compound: Nc1ccc(-c2nc(N3CCOCC3)c3cnn(C4CCN(Cc5ccccc5)CC4)c3n2)cc1 [NEU-00000233]
IC50 (T. b. rhodesiense): 3.7 µM

IC50 (L. major promastigotes [1]): 5.49 µM | IC50 [4]: 6.34 µM | IC50 [2]: 6.9 µM
Compound: CC(C)(C)OC(=O)Nc1ccc(-c2nc(N3CCOCC3)c3cnn(C4CCN(Cc5ccccc5)CC4)c3n2)cc1 [NEU-00000234]
IC50 (T. b. rhodesiense): 2.19 µM

Compound: COc1cccc(-c2nc(N3CCOCC3)c3oc4ncccc4c3n2)c1 [NEU-0000288]
IC50 (L. major promastigotes [1]): 4.07 µM | IC50 [2]: ~20 µM | IC50 (T. cruzi trypomastigotes): 3.7 µM

Compound: COc1cccc(-c2nc(N3CCCCC3)c3oc4ncccc4c3n2)c1 [NEU-0000289]
IC50 (L. major promastigotes [1]): 7.65 µM | IC50 [2]: ~20 µM | IC50 (T. cruzi trypomastigotes): 3.9 µM

Compound: c1ccc(-c2nc(N3CCOCC3)c3oc4ncccc4c3n2)cc1 [NEU-0000290]
IC50 (L. major promastigotes [1]): > 20 µM | IC50 [2]: > 20 µM | IC50 (T. cruzi trypomastigotes): 1.5 µM

Compound: c1ccc(-c2nc(N3CCCCC3)c3oc4ncccc4c3n2)cc1 [NEU-0000291]
IC50 (L. major promastigotes [1]): > 10 µM | IC50 [2]: > 10 µM | IC50 (T. cruzi trypomastigotes): 12 µM

Compound: CCOCCNc1nc(-c2ccccc2)nc2c1oc1ncccc12 [NEU-0000292]
IC50 (L. major promastigotes [1]): 4 µM | IC50 [2]: 12.5 µM | IC50 (T. cruzi trypomastigotes): > 50 µM

Compound: CCOCCNc1nc(-c2cccc(OC)c2)nc2c1oc1ncccc12 [NEU-0000361]
IC50 (T. cruzi trypomastigotes): > 50 µM | IC50 (T. b. rhodesiense): > 5 µM

Compound: CCOCCNc1nc(-c2cccc(O)c2)nc2c1oc1ncccc12 [NEU-0000362]
IC50 (T. cruzi trypomastigotes): > 50 µM | IC50 (T. b. rhodesiense): > 1 µM

Compound: CCOc1ccccc1-c1nc(N2CCOCC2)c2oc3ncccc3c2n1 [NEU-0000363]
IC50 (T. cruzi trypomastigotes): > 50 µM | IC50 (T. b. rhodesiense): > 5 µM

Compound: CCOc1ccccc1-c1nc(N2CCCCC2)c2oc3ncccc3c2n1 [NEU-0000364]
IC50 (T. cruzi trypomastigotes): > 50 µM | IC50 (T. b. rhodesiense): > 5 µM

Compound: COc1ccc(-c2nc(N3CCOCC3)c3oc4ncccc4c3n2)cc1 [NEU-0000365]
IC50 (T. cruzi trypomastigotes): > 50 µM | IC50 (T. b. rhodesiense): > 5 µM

Compound: Oc1cccc(-c2nc(N3CCOCC3)c3oc4ncccc4c3n2)c1 [PI-103]
EC50 (L. major promastigotes [1]): 0.32 ± 0.16 µM | EC50 [4]: 1.05 ± 0.28 µM | EC50 [2]: 0.62 ± 0.41 µM | EC50 (T. cruzi trypomastigotes): > 25 µM | EC50 [3, 8]: 0.214 ± 0.036 µM | EC50 ([3]; read-out: activity against T. b. brucei cultures): 0.2 µM | EC50 (T. b. rhodesiense; [9]): 0.105 ± 0.01 µM | EC50 (T. b. rhodesiense; read-out: activity against T. b. rhodesiense cultures): 0.1 µM | effect on cellular DNA content / cell cycle, T. b. brucei [5]: G1 arrest | effect on cell size and DNA content, L. major promastigotes (L. major promastigotes [6]; [10]): G1 arrest and a decrease in cell size | EC50 (Leishmania; read-out: inhibition of Leishmania across both species and stages): 0.32 to 1.05 µM | EC50 (human cells): 0.5 µM

EC50 ([3]; Table 3, read-out: EC50 T. b. brucei 427): 0.0042 ± 0.0002 µM | EC50 [7]: 0.0025 ± 0.0005 µM
Compound: N=C(N)c1ccc(OCCCCCOc2ccc(C(=N)N)cc2)cc1 [Pentamidine]
EC50 (T. b. rhodesiense; Table 3, read-out: EC50 T. b. rhodesiense EATRO3): 0.0037 ± 0.0004 µM | EC50 (T. b. brucei Lister 927): 0.0303 ± 0.0104 µM

Compound: CC(C)n1nc(-c2cc3cc(O)ccc3[nH]2)c2c(N)ncnc21 [Pp242]
effect on cellular DNA content / cell cycle, T. b. brucei [5]: G1 arrest | effect on cell size and DNA content, L. major promastigotes (L. major promastigotes [6]; higher concentrations of Pp242): G2 arrest and increase in cell size | effect on cell size and DNA content, L. major promastigotes (L. major promastigotes [6]; lower concentrations of Pp242): decrease in cell size and a G1 arrest

Compound: COC(=O)Nc1ccc(-c2nc(N3CCOCC3)c3cnn(C4CCN(C(=O)OC)CC4)c3n2)cc1 [WYE-354]
EC50 (L. major promastigotes [1]): 4.1 ± 0.3 µM | EC50 [4]: 5.95 ± 0.84 µM | EC50 [2]: 6.1 ± 1.73 µM | EC50 (T. cruzi trypomastigotes): > 10 µM | EC50 [3, 8]: 0.58 ± 0.26 µM | EC50 (T. b. rhodesiense; [9]): 0.78 ± 0.08 µM | effect on cellular DNA content / cell cycle, T. b. brucei [5]: no significant variations in cell cycle | effect on cell size, T. b. brucei [5]: small but noticeable reduction in cell size | effect on cell size and DNA content, L. major promastigotes (L. major promastigotes [6]; [10]): G1 arrest and a decrease in cell size | EC50 (Leishmania; read-out: activity against Leishmania across both species and stages): 4 to 6 µM | EC50 (human cells): 0.03 µM | IC50 (mTOR; human enzyme, Table 1): 0.004 µM | mTOR IC50 in words (mTOR): low nanomolar | IC50 (PI3K p110α): 1 µM
